This is an account of results in patent publication US20250313563A1, “GLYCOGEN SYNTHASE KINASE 3 INHIBITORS AND USES THEREOF” (The Broad Institute, Inc., priority 2022, published 2025).

For experiment [1], the target named is GSK3α (GST-full length GSK3α) (Homo sapiens (Human), UniProt P49840). Nature of the experiment: GSK3α TR-FRET kinase assay. Type of experiment: biochemical. The essentials: (§1)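 1 nM GST-GSK3α/β + cpd, 30 min preinc; add 200 nM biotin-pS645 GS(631-650) peptide + ATP (α 4 μM / β 2 μM, or 1 mM); 100 min RT, 50 mM Tris pH 7.5, 20 mM MgCl2, 1% DMSO; EDTA stop; SA-d2/Tb-pSer641 Ab 60 min; 665/615 ratio → IC50.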
Chain of GSK3α (GST-full length GSK3α) (P49840 whole entry): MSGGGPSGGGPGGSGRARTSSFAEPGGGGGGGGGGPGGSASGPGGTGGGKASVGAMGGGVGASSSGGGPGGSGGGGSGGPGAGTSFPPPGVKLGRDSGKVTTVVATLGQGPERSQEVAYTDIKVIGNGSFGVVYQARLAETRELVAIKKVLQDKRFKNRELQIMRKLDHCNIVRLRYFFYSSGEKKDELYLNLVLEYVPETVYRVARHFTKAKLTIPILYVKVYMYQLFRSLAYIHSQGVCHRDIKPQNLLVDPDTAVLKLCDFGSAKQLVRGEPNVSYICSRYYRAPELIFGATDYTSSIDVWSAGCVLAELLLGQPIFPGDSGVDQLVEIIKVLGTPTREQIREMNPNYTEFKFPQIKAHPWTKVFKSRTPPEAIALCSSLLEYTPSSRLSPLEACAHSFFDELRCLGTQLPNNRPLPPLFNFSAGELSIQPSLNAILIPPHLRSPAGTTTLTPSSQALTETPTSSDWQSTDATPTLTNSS
(In general: Time-resolved FRET reads energy transfer from a long-lived donor to a nearby acceptor.)

The target of experiment [2] is GSK3b (GST-full length GSK3b) (Homo sapiens (Human), UniProt P49841). As to the kind of experiment: GSK3b TR-FRET kinase assay. The experiment is classed as biochemical. The essentials: as §1
Chain of GSK3b (GST-full length GSK3b) (P49841 whole entry): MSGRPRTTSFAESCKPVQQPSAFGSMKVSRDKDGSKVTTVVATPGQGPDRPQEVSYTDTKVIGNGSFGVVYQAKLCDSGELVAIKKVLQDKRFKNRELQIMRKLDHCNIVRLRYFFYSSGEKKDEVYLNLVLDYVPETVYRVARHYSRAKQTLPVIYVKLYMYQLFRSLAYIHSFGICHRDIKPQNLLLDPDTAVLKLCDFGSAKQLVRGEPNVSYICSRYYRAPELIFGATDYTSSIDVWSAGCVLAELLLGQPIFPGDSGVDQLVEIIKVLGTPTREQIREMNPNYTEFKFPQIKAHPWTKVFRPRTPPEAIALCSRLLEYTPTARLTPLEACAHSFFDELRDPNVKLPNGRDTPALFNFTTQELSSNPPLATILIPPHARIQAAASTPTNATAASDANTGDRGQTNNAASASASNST
[3] abbreviates: 1 nM GSK3α, 4 μM ATP, 30 minute preincubation, Table 16, read-out: GSK3-A TR-FRET BIOCHEMICAL (TR-FRET), IC50.
[4] abbreviates: read-out: GSK3-A (TR-FRET 1 mM ATP), GMean, IC50, 1 mM ATP, geometric mean.
Where [5] appears, read: 1 nM GSK3b, 2 μM ATP, 30 minute preincubation, Table 16, read-out: GSK3-B TR-FRET BIOCHEMICAL (TR-FRET), IC50.
The mark [6] stands for this setting: read-out: GSK3-B (TR-FRET 1 mM ATP), GMean, IC50, 1 mM ATP, geometric mean.
[7] abbreviates: 1 nM GSK3α, 4 μM ATP, 30 minute preincubation, read-out: GSK3-A TR-FRET BIOCHEMICAL (TR-FRET), IC50.
Setting [8] is: 1 nM GSK3b, 2 μM ATP, 30 minute preincubation, read-out: GSK3-B TR-FRET BIOCHEMICAL (TR-FRET), IC50.
The mark [9] stands for this setting: 1 nM GSK3α, 4 μM ATP, 30 minute preincubation, Table 16, read-out: GSK3-A TR-FRET BIOCHEMICAL (TR-FRET).
Where [10] appears, read: 1 nM GSK3b, 2 μM ATP, 30 minute preincubation, Table 16, read-out: GSK3-B TR-FRET BIOCHEMICAL (TR-FRET).
Where [11] appears, read: 1 nM GSK3α, 4 μM ATP, 30 minute preincubation, geometric mean, read-out: GSK3-A TR-FRET BIOCHEMICAL (TR-FRET), GMean, IC50.
Setting [12] is: 1 nM GSK3b, 2 μM ATP, 30 minute preincubation, geometric mean, read-out: GSK3-B TR-FRET BIOCHEMICAL (TR-FRET), GMean, IC50.
Where [13] appears, read: GSK3-A (TR-FRET 1 mM ATP), GMean, IC50, 1 mM ATP, geometric mean.
The mark [14] stands for this setting: GSK3-B (TR-FRET 1 mM ATP), GMean, IC50, 1 mM ATP, geometric mean.

Where two headings read alike, the source gives them in different places. Where only a bound is given, the exact number is not on record here.

With `CCC1(c2cccc(-c3ccnn3C)c2)C2=C(CC(C)(C)CC2=O)Nc2n[nH]cc21` (stereo not drawn) [Compound 911992], the IC50 in experiment [1] (setting [3]) is not above 100 nM; in experiment [1] (setting [4]), not above 100 nM; in experiment [2] (setting [5]), not above 100 nM; in experiment [2] (setting [6]) it was 100 to 1000 nM.

Turning to `CC1(C)CC(=O)C2=C(C1)Nc1n[nH]cc1C21COC2(CN(C(=O)C3(F)CCC3)C2)C1` (stereo not drawn) [Compound 947736], the IC50 in experiment [1] (setting [7]) was not above 100 nM; in experiment [2] (setting [8]), 100 to 1000 nM.

For the compound `CCC1(c2cccc(C(F)(F)F)c2)C2=C(CC(C(C)(C)C)NC2=O)Nc2n[nH]cc21` (stereo not drawn) [Compound 945923], the IC50 in experiment [1] (setting [7]) and in experiment [2] (setting [8]) was more than 5000 nM each time.

With `CCC1(c2cccc(-c3cnnn3C)c2)C2=C(CC(C)(C)CC2=O)Nc2n[nH]cc21` (stereo not drawn) [Compound 947398], the IC50 in experiment [1] (setting [9]) and in experiment [2] (setting [10]) was not above 100 nM each time.

As for `CCC1(c2cccc(-c3cnn4c3CCCC4)c2)C2=C(CC(C)(C)CC2=O)Nc2n[nH]c(C)c21` (stereo not drawn) [Compound 884002], the IC50 in experiment [1] (setting [3]) and in experiment [2] (setting [5]) was not above 100 nM each time.

As for `CC[C@]1(c2cccc(C3CC3)c2)C2=C(CC(C)(C)CC2=O)Nc2n[nH]cc21` [Compound 811557], the IC50 in experiment [1] (setting [11]) is not above 100 nM; in experiment [1] (setting [4]) it was 100 to 1000 nM; in experiment [2] (setting [12]), not above 100 nM; in experiment [2] (setting [6]) it was 1000 to 5000 nM.

In the case of `CC[C@]1(c2ccc(C)cc2)C2=C(CC(C)(C)CC2=O)Nc2n[nH]cc21` [Compound 789458], the IC50 in experiment [1] (setting [11]) and in experiment [2] (setting [12]) was more than 5000 nM throughout.

With `CC1(C)CC(=O)C2=C(C1)Nc1n[nH]cc1C21CCCN(c2ccncn2)CC1` (stereo not drawn) [Compound 917145], the IC50 in experiment [1] (setting [3]) and in experiment [2] (setting [5]) was 1000 to 5000 nM in each case.

As for `CCC1(c2cccc(CS(C)(=O)=O)c2)C2=C(CC(C)(C)CC2=O)Nc2n[nH]cc21` (stereo not drawn) [Compound 945601], the IC50 in experiment [1] (setting [9]) and in experiment [2] (setting [10]) was 100 to 1000 nM in each case.

As to `CC1(C)CC(=O)C2=C(Nc3n[nH]cc3[C@]23CC[C@@H](C(F)(F)F)CC3)[C@H]1F` [Compound 918285], the IC50 in experiment [1] (setting [9]) was not above 100 nM; in experiment [1] (setting [13]), 1000 to 5000 nM; in experiment [2] (setting [10]) it was 100 to 1000 nM; in experiment [2] (setting [14]), more than 5000 nM.

On to `CC[C@]1(c2cccc(-c3ccncc3F)c2)C2=C(CC(C)(C)NC2=O)Nc2n[nH]c(C(F)F)c21` [Compound 951612], for which the IC50 is not above 100 nM in experiment [1] (setting [3]), 100 to 1000 nM in experiment [1] (setting [4]), not above 100 nM in experiment [2] (setting [5]) and 1000 to 5000 nM in experiment [2] (setting [6]).

Turning to `CC[C@]1(c2cccc(Cc3ncccc3C(F)(F)F)c2)C2=C(CC(C)(C)CC2=O)Nc2n[nH]cc21` [Compound 947665], the IC50 was 1000 to 5000 nM in experiment [1] (setting [9]) and more than 5000 nM in experiment [2] (setting [10]).

For `CC[C@]1(c2cccc(-c3cn(C)nc3C)c2)C2=C(CC(C)(C)NC2=O)Nc2n[nH]cc21` [Compound 945470], the IC50 was not above 100 nM in experiment [1] (setting [7]), 100 to 1000 nM in experiment [1] (setting [4]), not above 100 nM in experiment [2] (setting [8]) and 1000 to 5000 nM in experiment [2] (setting [6]).

Consider `CC1(C)CC(=O)C2=C(C1)Nc1n[nH]cc1C21CCN(S(=O)(=O)c2ccccc2)CC1` [Compound 874530], for which the IC50 in experiment [1] (setting [9]) is not above 100 nM; in experiment [1] (setting [13]), 100 to 1000 nM; in experiment [2] (setting [10]), not above 100 nM; in experiment [2] (setting [14]), 1000 to 5000 nM.

Take `CC[C@@]1(c2cccc(-c3cnn(Cc4cccc(C(F)(F)F)c4)c3)c2)C2=C(CC(C)(C)NC2=O)Nc2n[nH]cc21` [Compound 949513]: the IC50 in experiment [1] (setting [3]) and in experiment [2] (setting [5]) was more than 5000 nM throughout.

As for `CC[C@H]1C[C@@]2(CO1)C1=C(CC(C)(C)CC1=O)Nc1n[nH]cc12` [Compound 913214], the IC50 in experiment [1] (setting [9]) was 100 to 1000 nM; in experiment [2] (setting [10]), 1000 to 5000 nM.

On to `O=C1C2=C(Nc3n[nH]cc3C23CCOCC3)[C@H]2CC[C@@H]1C2` [Compound 912080], for which the IC50 in experiment [1] (setting [9]) and in experiment [2] (setting [10]) was 100 to 1000 nM in each case.

Take `C[C@@H]1CCC[C@]12C1=C(CC(C)(C)CC1=O)Nc1n[nH]cc12` [Compound 874319]: the IC50 in experiment [1] (setting [3]) and in experiment [2] (setting [5]) was 1000 to 5000 nM in each case.
